From article PMC7804268, “Engineering and elucidation of the lipoinitiation process in nonribosomal peptide biosynthesis” (Nature Communications, 2021) come the findings set out here.

Each structure is given as a SMILES string.

In this test the target is T1, RzmA-Cs (Mycetohabitans rhizoxinica, UniProt E5ATN9, R148A).
T1 construct: gene RBRH_01504; excised starter condensation (Cs) domain, residues 1-431, pET28a, E. coli BL21(DE3), N-terminal His6 tag removed by thrombin, size-exclusion purified
T1 sequence (E5ATN9 1-431 R148A): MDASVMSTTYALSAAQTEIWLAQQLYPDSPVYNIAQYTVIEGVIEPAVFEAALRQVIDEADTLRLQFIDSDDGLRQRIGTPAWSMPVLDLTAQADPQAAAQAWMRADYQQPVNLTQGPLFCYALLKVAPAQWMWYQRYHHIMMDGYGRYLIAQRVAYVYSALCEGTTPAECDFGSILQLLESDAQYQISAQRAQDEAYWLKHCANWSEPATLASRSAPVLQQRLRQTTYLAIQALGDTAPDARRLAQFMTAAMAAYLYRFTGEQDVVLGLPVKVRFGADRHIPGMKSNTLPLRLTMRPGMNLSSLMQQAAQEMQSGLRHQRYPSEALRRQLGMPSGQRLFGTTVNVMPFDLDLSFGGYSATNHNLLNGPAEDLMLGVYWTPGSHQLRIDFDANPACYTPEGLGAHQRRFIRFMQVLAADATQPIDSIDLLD
Kind of test: isothermal titration calorimetry. Type of test: binding.

`CCCCCCCC(=O)SCCNC(=O)CCNC(=O)[C@H](O)C(C)(C)COP(=O)(O)OP(=O)(O)OC[C@H]1O[C@@H](n2cnc3c(N)ncnc32)[C@H](O)[C@@H]1OP(=O)(O)O` [3d, C8-CoA] registered a dissociation constant Kd of approximately 300 nM.

Broadly, the Kd is the equilibrium constant for the complex coming apart. Read a high Kd as weaker binding.
